We go through seven molecules from ChEMBL document CHEMBL3994582, “A2B adenosine receptor antagonists: Design, synthesis and biological evaluation of novel xanthine derivatives” (Eur J Med Chem, 2017).

The species named for series [1] is Homo sapiens. In words: Selectivity ratio of Ki for human adenosine receptor A2a expressed in HEK293 cell membranes to Ki for human adenosine receptor A2b expressed in HEK293 cell membranes. The class given is cell-based.
The target in series [2] is T1, Adenosine receptor A2b (Homo sapiens, UniProt P29275).
T1 sequence (P29275 whole entry): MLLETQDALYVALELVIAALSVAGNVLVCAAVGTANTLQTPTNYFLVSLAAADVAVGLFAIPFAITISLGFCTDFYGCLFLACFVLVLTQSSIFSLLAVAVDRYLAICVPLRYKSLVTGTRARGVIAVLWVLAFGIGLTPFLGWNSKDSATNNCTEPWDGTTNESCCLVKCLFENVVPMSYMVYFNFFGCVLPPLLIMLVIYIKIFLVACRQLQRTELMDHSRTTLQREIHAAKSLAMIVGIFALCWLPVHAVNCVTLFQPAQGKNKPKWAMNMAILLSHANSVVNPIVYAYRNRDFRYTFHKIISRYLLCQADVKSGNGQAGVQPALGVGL
In words: Antagonist activity at human adenosine receptor A2b expressed in HEK293 cells assessed as inhibition of NECA-induced cAMP level preincubated for 15 mins followed by NECA stimulation for 15 mins by HTRF assay. The class given is functional, cell-based. On the technique in general: Changes in cAMP serve as a functional read-out for many G protein-coupled receptors.

For series [3], the target named is T1, Adenosine receptor A2b. In words: Displacement of [3H]-MRS-1754 from human adenosine receptor A2b expressed in HEK293 cell membranes after 90 mins by liquid scintillation counting method. (In a radioligand displacement assay an active substance lowers the binding of a labelled ligand.)
In another series the target is T2, Adenosine receptor A1 (Homo sapiens, UniProt P30542).
T2 sequence (P30542 whole entry): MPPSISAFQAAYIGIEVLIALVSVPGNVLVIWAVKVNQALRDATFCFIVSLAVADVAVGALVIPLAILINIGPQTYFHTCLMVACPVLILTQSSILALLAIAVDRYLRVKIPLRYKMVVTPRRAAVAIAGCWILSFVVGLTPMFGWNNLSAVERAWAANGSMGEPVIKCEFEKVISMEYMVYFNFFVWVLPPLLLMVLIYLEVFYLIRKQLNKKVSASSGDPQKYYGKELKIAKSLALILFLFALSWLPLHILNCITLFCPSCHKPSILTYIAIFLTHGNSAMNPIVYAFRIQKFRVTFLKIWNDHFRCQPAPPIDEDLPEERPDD
In words: Displacement of [3H]DPCPX from human adenosine receptor A1 expressed in HEK293 cell membranes after 90 mins by liquid scintillation counting method.

The species entered for series [4] is Homo sapiens. In words: Selectivity ratio of Ki for human adenosine receptor A1 expressed in HEK293 cell membranes to Ki for human adenosine receptor A2b expressed in HEK293 cell membranes. The series is classed as cell-based.
The target of series [5] is T3, Adenosine receptor A3 (Homo sapiens) (UniProt P0DMS8).
T3 sequence (whole entry): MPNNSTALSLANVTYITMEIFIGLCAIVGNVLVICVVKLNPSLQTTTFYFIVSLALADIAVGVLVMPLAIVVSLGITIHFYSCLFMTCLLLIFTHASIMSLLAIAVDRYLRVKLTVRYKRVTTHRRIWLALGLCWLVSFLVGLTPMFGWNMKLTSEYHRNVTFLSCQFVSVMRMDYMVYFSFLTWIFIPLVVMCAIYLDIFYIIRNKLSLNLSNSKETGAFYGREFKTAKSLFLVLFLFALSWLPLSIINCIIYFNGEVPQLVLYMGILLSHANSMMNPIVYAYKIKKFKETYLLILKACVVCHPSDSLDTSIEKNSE
In words: Displacement of [3H]-HEM-ADO from human adenosine receptor A3 expressed in HEK293 cell membranes at 1 uM after 90 mins by liquid scintillation counting method relative to control.

Series [6] deals with Liver. In words: Metabolic stability in human liver microsomes assessed as metabolic rate per mg protein preincubated for 5 mins followed by NADPH addition measured up to 30 mins by LC-MS/MS analysis. The series is classed as ADME, microsome. The settings on record: 0.5 h.
In series [7] the target is T4, Adenosine receptor A1 (Homo sapiens) (UniProt P30542).
T4 sequence (whole entry): T2 sequence (P30542 whole entry)
In words: Displacement of [3H]DPCPX from human adenosine receptor A1 expressed in HEK293 cell membranes at 0.1 uM after 90 mins by liquid scintillation counting method relative to control.

Series [8] deals with T5, Adenosine receptor A2a (Homo sapiens, UniProt P29274). In words: Displacement of [3H]-ZM-241385 from human adenosine receptor A2a expressed in HEK293 cell membranes after 90 mins by liquid scintillation counting method.
Series [9] concerns Liver. In words: Metabolic stability in mouse liver microsomes assessed as metabolic rate per mg protein preincubated for 5 mins followed by NADPH addition measured up to 30 mins by LC-MS/MS analysis. The class given is ADME, microsome. Conditions: 0.5 h. On the technique in general: Liver microsomes are vesicles of endoplasmic reticulum, rich in cytochrome P450 enzymes.
Series [10] deals with T5, Adenosine receptor A2a. In words: Displacement of [3H]-ZM-241385 from human adenosine receptor A2a expressed in HEK293 cell membranes at 0.1 uM after 90 mins by liquid scintillation counting method relative to control.
The nature of series [11]: Solubility of the compound. The series is classed as physicochemical.

In general, Ki refers to the dissociation constant of the complex between target and ligand, obtained from inhibition or displacement. In general, inhibition refers to the relative decrease from the control value, in per cent. The low end stands for little suppression, the high end for strong suppression.

Where only a bound is given, the exact number is not on record here.

T5 sequence (P29274 whole entry): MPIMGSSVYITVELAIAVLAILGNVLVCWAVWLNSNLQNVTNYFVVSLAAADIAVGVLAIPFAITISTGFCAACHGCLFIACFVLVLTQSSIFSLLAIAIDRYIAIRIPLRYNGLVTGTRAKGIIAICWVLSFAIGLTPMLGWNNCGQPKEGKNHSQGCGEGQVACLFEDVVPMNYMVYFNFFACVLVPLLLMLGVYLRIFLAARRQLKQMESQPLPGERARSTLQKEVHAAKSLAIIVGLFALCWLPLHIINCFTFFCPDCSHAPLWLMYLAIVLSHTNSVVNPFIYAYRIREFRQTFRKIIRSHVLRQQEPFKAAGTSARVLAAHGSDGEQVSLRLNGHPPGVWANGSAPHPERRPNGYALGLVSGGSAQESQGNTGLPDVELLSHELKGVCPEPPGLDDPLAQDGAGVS

As for `CCCn1c(=O)c2[nH]c(-c3cc(OCC4CC(=O)N(c5ccc(C(F)(F)F)cc5)C4)no3)nc2n(CCC)c1=O` (stereo not given), the Ratio Ki came out at 226 in the series filed under Homo sapiens [1] and 328 in the series listed under Homo sapiens [4]. In addition, the inhibitory constant (Ki) at Adenosine receptor A2b [2] turned out to be 540 nM; at Adenosine receptor A2b [3], 12.8 nM; at Adenosine receptor A1 it was 4200 nM; at Adenosine receptor A2a [8], 2900 nM. Besides, the inhibition was 0% in series [5], 0% in series [7] and 18% at Adenosine receptor A2a [10]. For the same molecule, the Drug metabolism in the series on Liver [6] is 0.07 nmol/min/mg; with Liver [9] it was 0.04 nmol/min/mg.

Take `CCCn1c(=O)c2[nH]c(-c3cnn(CC4CC(=O)N(c5ccc(OC)cc5)C4)c3)nc2n(CC)c1=O` (stereo not given): the values for the Ratio Ki in the series listed under Homo sapiens [1] and in the series listed under Homo sapiens [4] were 30 and 44, respectively. Besides, the Ki is 14 nM at Adenosine receptor A2b [2], 16 nM at Adenosine receptor A2b [3], 711 nM on Adenosine receptor A1 and 486 nM on Adenosine receptor A2a [8]. Also, the inhibition in [5] is 14%; in series [7], 15%; on Adenosine receptor A2a [10] it was 21%. The Drug metabolism in the series on Liver [6] was 0.11 nmol/min/mg; in the series with Liver [9], 0.07 nmol/min/mg.

For `CCCn1c(=O)c2[nH]c(-c3cnn(CC4CCN(c5ccc(OC(F)(F)F)cc5)C4=O)c3)nc2n(CCC)c1=O` (stereo not given), the Ratio Ki amounted to 6 in the series listed under Homo sapiens [1] and 56 in the series listed under Homo sapiens [4]. In addition, the Ki was 191 nM on Adenosine receptor A2b [2], 6 to 8 nM at Adenosine receptor A2b [3], 340 nM on Adenosine receptor A1 and 36 nM on Adenosine receptor A2a [8]. Further, the inhibition in series [5] was 32%; in series [7], 51%; on Adenosine receptor A2a [10], 7%. The Drug metabolism in the series with Liver [6] stood at 0.02 nmol/min/mg; in the series on Liver [9] it was 0.03 nmol/min/mg.

`CCCn1c(=O)c2[nH]c(-c3cnn(CC4CC(=O)N(c5ccc(F)cc5)C4)c3)nc2n(CC)c1=O` (stereo not given): the Ratio Ki turned out to be 16 in the series filed under Homo sapiens [1] and 28 in the series filed under Homo sapiens [4]. Further, the Ki was found to be 4 nM on Adenosine receptor A2b [2], 12 nM at Adenosine receptor A2b [3], 346 nM at Adenosine receptor A1 and 192 nM on Adenosine receptor A2a [8]. Also, the figures for the inhibition (in [5]; in [7]; on Adenosine receptor A2a [10]) were 0%, 22% and 33%, respectively. For the same molecule, the Drug metabolism in the series with Liver [6] worked out at 0 nmol/min/mg; in the series on Liver [9], 0.15 nmol/min/mg.

Regarding `CCCn1c(=O)c2[nH]c(-c3ccc(OCC4CC(=O)N(c5ccc(C(F)(F)F)cc5)C4)nc3)nc2n(CCC)c1=O` (stereo not given), the Ratio Ki in the series listed under Homo sapiens [1] is 17; in the series filed under Homo sapiens [4] it was greater than 266. In addition, the inhibitory constant (Ki) is 71 nM at Adenosine receptor A2b [2], 3 nM at Adenosine receptor A2b [3], greater than 800 nM at Adenosine receptor A1 and 53 nM on Adenosine receptor A2a [8]. In [11], the solubility entry is recorded as “Insoluble”. Also, the figures for the inhibition (in series [5]; in [7]; on Adenosine receptor A2a [10]) were 0%, 25% and 46%, respectively. The Drug metabolism in the series with Liver [6] was 0.02 nmol/min/mg; in the series on Liver [9] it was 0 nmol/min/mg.

Consider `CCCn1c(=O)c2[nH]c(-c3ccc(OCC4CC(=O)N(c5cccc(C(F)(F)F)c5)C4)nc3)nc2n(CCC)c1=O` (stereo not given), for which the solubility result in series [11] is “Insoluble”. For the same molecule, affinity at Adenosine receptor A2b [3] was put at a Ki of 8.7 nM. Also, the inhibition amounted to 26% in series [5], 4% in series [7] and 71% on Adenosine receptor A2a [10]. Further, the Drug metabolism in the series on Liver [6] was 0.05 nmol/min/mg; in the series with Liver [9] it was 0 nmol/min/mg.

Consider `CCCn1c(=O)c2[nH]c(-c3ccc(OCC4CC(=O)N(c5cccc(C(F)(F)F)c5)C4)cc3)nc2n(CCC)c1=O` (stereo not given), for which the solubility result in series [11] is “Insoluble”. In addition, the affinity on Adenosine receptor A2b [3] corresponds to a Ki of 7.5 nM. Moreover, the inhibition worked out at 13% in series [5], 1% in [7] and 80% at Adenosine receptor A2a [10]. Also, the results for the Drug metabolism in the series with Liver [6] and in the series with Liver [9] were 0.09 nmol/min/mg and 0.06 nmol/min/mg, respectively.
